Measurements taken from patent US7268155B2, “Photosensitizer conjugates for pathogen targeting” (The General Hospital Corporation, priority 1997, dated 2007).

Tests used:
[1] = system: P. gingivalis; type: cell-based, Porphyromonas gingivalis
Method: In order to establish the effectiveness and selectivity of these conjugates for killing bacteria while sparing mammalian cells, the three conjugates were compared to two widely used clinical photosensitizers, Photofrin II and benzoporphyrin derivative (BPD) (QLT Phototherapeutics Inc., Vancouver, BC). Photosensitizer bulk solid was dissolved in DMSO at 1 mM and diluted in TSB.
Suspensions of P. gingivalis cells (10^8/ml) were incubated in duplicate in the dark at room temperature for 1 min with 5 μm chlorin e6 equivalent of each conjugate, with Photofrin II, and with BPD. Cells were centrifuged, washed once with sterile PBS, and 1 ml fresh TSB was added. In the Example here, the ratios of uptake of chlorin e6 per mg cell protein in P. gingivalis and HCPC-1 cells for the cationic, anionic and neutral conjugates were 46:1, 60:1 and 22:1, respectively.
Bacterial suspensions were added to wells of 12-well plates, and were irradiated in the dark at room temperature using a light emitting diode array which emitted light with wavelengths from 630-710 nm, spanning the absorbance maxima of these photosensitizer compositions. Wells were exposed from below, using fluences from 0 to 25 J/cm^2 at an irradiance of 65 mW/cm^2. Plates were covered during illumination to maintain sterility of the cultures. After illumination of the appropriate wells, serial dilutions of the contents of each well were prepared in TSB, and duplicate 100 μl aliquots were spread on the surfaces of blood agar plates. Survival fractions in each well were calculated by counting the colonies on the plates and dividing by number of colonies from unirradiated controls incubated with photosensitizer in the dark at room temperature for periods equal to irradiation times. Other controls were: bacteria treated neither with photosensitizer nor light, and incubated at room temperature in the dark, and cells exposed to light in the absence of photosensitizer.

[2] = system: HCPC-1 cells; assay: Phototoxicity to HCPC-1 cells after irradiation, MTT assay; type: cell-based, hamster; conditions: 5 μM photosensitizer, light 630-710 nm, MTT 24 h after irradiation
Method: HCPC-1 cells, 2×10^4 in aliquots of 100 μl growth medium with 10% FCS, were seeded in 96-well plates and cultured for 24 h until 70% confluent. Six wells from each plate were incubated with 5 μM of each photosensitizer and irradiated using the conditions described in Example 3. After illumination, cells were incubated with fresh medium at 37° C. for 24 h. Control cells were incubated under the conditions as in Example 3. Cell viability was determined 24 h after irradiation using the MTT-microculture tetrazolium assay, a method that assesses dehydrogenase activity in mitochondria of live cells (Mosmann T. J. Immunol. Methods 65, 55-63, 1983), and survival fractions were calculated as 570 nm absorbance of treated cells divided by that of unirradiated controls.

[3] = system: P. gingivalis; conditions: cited from earlier work
[4] = system: Porphyromonas gingivalis 381; assay: Uptake of chlorin e6 conjugates by P. gingivalis cells (fluorescence of cell extract per mg cell protein); type: cell-based; conditions: P. gingivalis 10^9 cells/ml, 1 min incubation, at each concentration (1, 5 and 10 μm chlorin e6 equivalent)
Method: Porphyromonas gingivalis 381, a Gram negative bacterium and one of the most common species in dental plaque, was maintained by weekly subculture in Trypticase Soy Agar (TSA) with 1% hemin, 1% vitamin K and 5% sheep blood. For experimental purposes, the organism was grown anaerobically in a chamber with 80% N2, 10% CO2 at 35° C. for 48 h, harvested by centrifugation and resuspended in Trypticase Soy Broth (TSB) with 1% hemin and 1% vitamin K. Cells were dispersed by sonication and repeated passage through Pasteur pipettes. Cell numbers were measured in a spectrophotometer (at wavelength 600 nm, in which an O.D. of 1 yields 10^8 cells/ml) using one ml tubes, to obtain the appropriate number of bacteria for each experiment (10^9 cells/ml for uptake studies and 10^8 cells/ml for irradiation studies). […]
Fluorescence of each cell extract was measured on a spectrofluorimeter (model FluoroMax, SPEX Industries, Edison, N.J.). The excitation wavelength was 400 nm and emission spectra of cell suspensions were recorded from 580 to 700 nm. The protein content of each cell extract was determined by a modified Lowry method (Markwell M. A. et al. Anal. Biochem. 87:206, 1978) using bovine serum albumin dissolved in 0.1 M NaOH/1% SDS as a protein standard to construct calibration curves. Results were expressed as mol chlorin e6 taken up per mg cell protein.

Substance	killing of HCPC-1 cells (in words) [2]	bacteria killed / reduction in viability of P. gingivalis [1]	further results
benzoporphyrin derivative [BPD, reference compound]	killed HCPC-1 cells		killing of P. gingivalis (in words) ([1]; 1 min incubation, light 630-710 nm, fluences 0 to 25 J/cm^2): not P. gingivalis
histatin-5			number of molecules that bind P. gingivalis [3]: About 3,600 molecules; Kd ([3]; read-out: Kd of binding to P. gingivalis): ~1000 nM
polylysine chlorin e6 [polylysine-chlorin e6]		99.9%	accumulation of the cationic conjugate compared to the anionic and neutral conjugates [4]: 2 times; HCPC-1 cells killed [2]: less than 2%
polylysine chlorin e6 acetylated [polylysine-chlorin e6-ac]	not HCPC-1 cells	over 90%	
polylysine chlorin e6-succinylated [polylysine-chlorin e6-succ]		66%	
